According to patent US12577217B2, “15-PGDH inhibitor” (KYORIN Pharmaceutical Co., Ltd., priority 2019, dated 2026):

Target: T1, recombinant human 15-PGDH (Homo sapiens, UniProt P15428)
T1 construct: purchased R&D Systems
T1 sequence (P15428 1-266): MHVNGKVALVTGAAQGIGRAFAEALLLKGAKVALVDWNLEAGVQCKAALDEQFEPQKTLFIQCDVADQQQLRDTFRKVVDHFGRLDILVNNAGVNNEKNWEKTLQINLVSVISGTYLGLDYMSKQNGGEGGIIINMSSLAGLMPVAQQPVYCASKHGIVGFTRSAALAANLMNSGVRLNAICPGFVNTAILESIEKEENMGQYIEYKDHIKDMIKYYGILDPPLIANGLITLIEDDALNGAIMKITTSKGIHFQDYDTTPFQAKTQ
Experiment: 15-PGDH enzyme inhibition test
Type: biochemical
Conditions: 4 nM recombinant human 15-PGDH, 30 μM PGE2, 1 mM NAD+, 60 minutes after starting the reaction; read-out: IC50 Value
Summary of the method: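 4 nM recombinant human enzyme pre-incubated with compound 12 min at room temperature in 50 mM Tris-HCl pH 8.0 with 0.01% Tween 20 and 0.01% bovine gamma globulin. Reaction started with 30 μM PGE2 and 1 mM NAD+, read after 60 min by fluorescence (ex 340/em 440 nm). IC50 from concentration-response curve.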

SMILES	IC50
CCCCn1nc2cc(N3CCOc4cc(C(=O)N5CCCCC5)cnc43)ccn2c1=O [Example 1-216]	< 10 nM
Cn1ccc2cc(N3CCOc4cc(C(=O)N5CCCCC5)cnc43)ccc2c1=O [Example 1-217]	< 10 nM
Cn1ncc2cc(N3CCOc4cc(C(=O)N5CCCCC5)cnc43)ccc2c1=O [Example 1-218]	< 10 nM
O=C(c1cnc2c(c1)OCCN2c1ccc2c(=O)[nH]ccc2c1)N1CCCCC1 [Example 1-219]	< 10 nM
CCCN1Cc2cc(N3CCOc4cc(C(=O)N5CCCCC5)cnc43)ccc2C1=O [Example 1-222]	< 10 nM
CCCCN1Cc2cc(N3CCOc4cc(C(=O)N5CCCCC5)cnc43)ccc2C1=O [Example 1-223]	< 10 nM
O=C(c1cnc2c(c1)OCCN2c1ccc2c(c1)CN(C1CC1)C2=O)N1CCCCC1 [Example 1-224]	< 10 nM
CN1Cc2ccc(N3CCOc4cc(C(=O)N5CCCCC5)cnc43)cc2C1=O [Example 1-225]	10 to 100 nM
Cn1cnc2cc(N3CCOc4cc(C(=O)N5CCC(F)(F)CC5)cnc43)ccc2c1=O [Example 1-226]	< 10 nM
O=C(c1cnc2c(c1)OCCN2c1ccc2c(c1)CN(C1CC1)C2=O)N1CCC(F)(F)CC1 [Example 1-227]	< 10 nM
CN1CCN(c2ccccc2)c2ncc(C(=O)N3CCCCC3)cc21 [Example 1-228]	> 100 nM
COc1cc(N2CCOc3cc(C(=O)N4CCCCC4)cnc32)cc2nn(C)c(=O)n12 [Example 1-230]	10 to 100 nM
O=C(c1cnc2c(c1)OCCN2c1ccccc1)N1CCCCC1 [Example 1-232]	10 to 100 nM
O=C(c1cnc2c(c1)OCCN2c1ccncc1)N1CCCCC1 [Example 1-233]	10 to 100 nM
O=C(c1cnc2c(c1)OCCN2c1cccnc1)N1CCCCC1 [Example 1-234]	10 to 100 nM
O=C(c1cnc2c(c1)OCCN2c1ccccn1)N1CCCCC1 [Example 1-235]	> 100 nM
O=C(c1cnc2c(c1)OCCN2c1ccc(F)cc1)N1CCCCC1 [Example 1-236]	> 100 nM
O=C(c1cnc2c(c1)OCCN2c1cccc(F)c1)N1CCCCC1 [Example 1-237]	< 10 nM
O=C(c1cnc2c(c1)OCCN2c1ccccc1F)N1CCCCC1 [Example 1-238]	> 100 nM
O=C(c1cnc2c(c1)OCCN2c1ccc(F)c(F)c1)N1CCCCC1 [Example 1-239]	10 to 100 nM
CS(=O)(=O)c1ccc(N2CCOc3cc(C(=O)N4CCCCC4)cnc32)cc1 [Example 1-240]	10 to 100 nM
N#Cc1ccc(N2CCOc3cc(C(=O)N4CCCCC4)cnc32)cc1 [Example 1-241]	< 10 nM
O=C(c1cnc2c(c1)OCCN2c1ccc(C(F)(F)F)cc1)N1CCCCC1 [Example 1-242]	10 to 100 nM
O=C(c1cnc2c(c1)OCCN2c1ccc(Br)cc1)N1CCCCC1 [Example 1-243]	10 to 100 nM
CCc1ccc(N2CCOc3cc(C(=O)N4CCCCC4)cnc32)cc1 [Example 1-244]	10 to 100 nM
COc1ccc(N2CCOc3cc(C(=O)N4CCCCC4)cnc32)cc1 [Example 1-245]	10 to 100 nM
CC(C)(N)c1ccc(N2CCOc3cc(C(=O)N4CCCCC4)cnc32)cc1 [Example 1-246]	> 100 nM

SMILES	IC50
COC(=O)C(C)(C)c1ccc(N2CCOc3cc(C(=O)N4CCCCC4)cnc32)cc1 [Example 1-247]	> 100 nM
CN1C(=O)C(C)(C)c2ccc(N3CCOc4cc(C(=O)N5CCCCC5)cnc43)cc21 [Example 1-248]	> 100 nM
CN1C(=O)C(C)(C)c2cc(N3CCOc4cc(C(=O)N5CCCCC5)cnc43)ccc21 [Example 1-249]	> 100 nM
Cn1nnnc1-c1ccc(N2CCOc3cc(C(=O)N4CCCCC4)cnc32)cc1 [Example 1-251]	< 10 nM
Cn1nnc(-c2ccc(N3CCOc4cc(C(=O)N5CCCCC5)cnc43)cc2)n1 [Example 1-252]	< 10 nM
O=C(c1cnc2c(c1)OCCN2c1cccc(Cl)c1)N1CCCCC1 [Example 1-253]	10 to 100 nM
CS(=O)(=O)c1ccc(N2CCOc3cc(C(=O)N4CCCCC4)cnc32)cc1Cl [Example 1-254]	10 to 100 nM
COc1cc(N2CCOc3cc(C(=O)N4CCCCC4)cnc32)ccc1S(C)(=O)=O [Example 1-255]	10 to 100 nM
O=C(c1cnc2c(c1)OCCN2c1ccc2cccnc2c1)N1CCCCC1 [Example 1-257]	< 10 nM
O=C(c1cnc2c(c1)OCCN2c1ccc2nccnc2c1)N1CCCCC1 [Example 1-258]	< 10 nM
O=C(c1cnc2c(c1)OCCN2c1ccc2cnccc2c1)N1CCCCC1 [Example 1-259]	< 10 nM
O=C(c1cnc2c(c1)OCCN2c1ccc2ccncc2c1)N1CCCCC1 [Example 1-260]	< 10 nM
COC(=O)c1ccc(N2CCOc3cc(C(=O)N4CCCCC4)cnc32)cc1 [Example 1-261]	< 10 nM
COC(=O)c1cccc(N2CCOc3cc(C(=O)N4CCCCC4)cnc32)c1 [Example 1-262]	< 10 nM
COC(=O)c1ccccc1N1CCOc2cc(C(=O)N3CCCCC3)cnc21 [Example 1-263]	> 100 nM
CCOC(=O)c1ccc(N2CCOc3cc(C(=O)N4CCCCC4)cnc32)s1 [Example 1-264]	< 10 nM
Cn1nc2cc(N3CCOc4c3ccc(C(=O)N3CCCCC3)c4Cl)ccn2c1=O [Example 1-265]	< 10 nM
COCCN1Cc2cc(N3CCOc4cc(C(=O)N5CCC(F)(F)CC5)cnc43)ncc2C1=O [Example 1-266]	10 to 100 nM
Cn1ccc2cc(N3CCOc4cc(C(=O)N5CCC(F)(F)CC5)cnc43)ccc2c1=O [Example 1-267]	< 10 nM
CCOCn1nc2cc(N3CCOc4cc(C(=O)N5CCCCC5)cnc43)ccn2c1=O [Example 1-268]	< 10 nM
CCOCCn1nc2cc(N3CCOc4cc(C(=O)N5CCCCC5)cnc43)ccn2c1=O [Example 1-269]	< 10 nM
Cn1nc2cc(N3CCOc4cc(C(=O)N5CCCCC5)cnc43)c(Cl)cn2c1=O [Example 1-270]	> 100 nM
COc1cc2c(cc1C(=O)N1CCCCC1)OCCN2c1ccc(C(=O)O)cc1 [Example 2-1, 4-(6-Methoxy-7-(piperidine-1-carbonyl)-2,3-dihydro-4H-benzo[b] [1,4]oxazin-4-yl)benzoic Acid]	10 to 100 nM
COc1c(C(=O)N2CCCCC2)ccc2c1OCCN2c1ccc(C(=O)O)cc1 [Example 2-2]	< 10 nM
O=C(O)c1ccc(N2CCOc3cc(C(=O)N4CCCCC4)c(Cl)cc32)cc1 [Example 2-3]	< 10 nM
O=C(O)c1ccc(N2CCOc3c2ccc(C(=O)N2CCCCC2)c3Cl)cc1 [Example 2-4]	< 10 nM
O=C(O)c1ccc(N2CCCOc3cc(C(=O)N4CCCCC4)ccc32)cc1 [Example 2-5]	< 10 nM

SMILES	IC50
O=C(O)c1ccc(N2CCCCOc3cc(C(=O)N4CCCCC4)ccc32)cc1 [Example 2-6]	< 10 nM
O=C(O)c1ccc(N2CCOc3cc(C(=O)N4CCCCC4)ccc32)cc1 [Example 2-7]	< 10 nM
O=C(O)c1ccc(N2CCCOc3cc(C(=O)N4CCCCC4)cnc32)cc1 [Example 2-8]	< 10 nM
O=C(O)c1ccc(N2CCCCOc3cc(C(=O)N4CCCCC4)cnc32)cc1 [Example 2-9]	< 10 nM
C[C@H]1COc2cc(C(=O)N3CCCCC3)ccc2N(c2ccc(C(=O)O)cc2)C1 [Example 2-10]	< 10 nM
C[C@@H]1COc2cc(C(=O)N3CCCCC3)ccc2N(c2ccc(C(=O)O)cc2)C1 [Example 2-11]	< 10 nM
COc1cc(N2CCOc3cc(C(=O)N4CCCCC4)ccc32)ccc1C(=O)O [Example 2-12]	< 10 nM
COc1cc(N2CCOc3cc(C(=O)N4CCC(F)(F)CC4)ccc32)ccc1C(=O)O [Example 2-13]	< 10 nM
COc1cc(N2CCOc3cc(C(=O)N4CC=CCC4)ccc32)ccc1C(=O)O [Example 2-14]	< 10 nM
O=C(O)c1ccc(N2CCSc3cc(C(=O)N4CCCCC4)ccc32)cc1 [Example 2-15]	< 10 nM
O=C(O)c1ccc(N2CC[S+]([O-])c3cc(C(=O)N4CCCCC4)ccc32)cc1 (stereo not shown) [Example 2-16]	10 to 100 nM
O=C(O)c1ccc(N2CCS(=O)(=O)c3cc(C(=O)N4CCCCC4)ccc32)cc1 [Example 2-17]	10 to 100 nM
O=C(O)c1ccc(N2CCCSc3cc(C(=O)N4CCCCC4)ccc32)cc1 [Example 2-18]	< 10 nM
O=C(O)c1ccc(N2CCC[S+]([O-])c3cc(C(=O)N4CCCCC4)ccc32)cc1 (stereo not shown) [Example 2-19]	> 100 nM
O=C(O)c1ccc(N2CCCS(=O)(=O)c3cc(C(=O)N4CCCCC4)ccc32)cc1 [Example 2-20]	> 100 nM
O=C(O)c1ccc(N2CCOc3cc(C(=O)N4CCCCC4)ccc32)nc1 [Example 2-21]	< 10 nM
O=C(O)c1ccc(N2CCOc3cc(C(=O)N4CCCCC4)ccc32)cn1 [Example 2-22]	< 10 nM
O=C(O)Cn1nc2cc(N3CCOc4cc(C(=O)N5CCCCC5)cnc43)ccn2c1=O [Example 2-23]	< 10 nM
O=C(O)c1ccc(N2CCCc3cc(C(=O)N4CCCCC4)ccc32)cc1 [Example 2-26]	< 10 nM
O=C(O)c1ccccc1N1CCOc2cc(C(=O)N3CCCCC3)ccc21 [Example 2-27]	> 100 nM
O=C(O)c1ccccc1N1CCc2cc(C(=O)N3CCCCC3)ccc21 [Example 2-28]	> 100 nM
O=C(O)c1cccc(N2CCc3cc(C(=O)N4CCCCC4)ccc32)c1 [Example 2-29]	< 10 nM
O=C(O)c1ccc(N2CCc3cc(C(=O)N4CCCCC4)ccc32)cc1 [Example 2-30]	< 10 nM
O=C(O)c1cccc(N2CCOc3cc(C(=O)N4CCCCC4)ccc32)c1 [Example 2-31]	< 10 nM
O=C(O)Cc1ccc(N2CCOc3cc(C(=O)N4CCCCC4)ccc32)cc1 [Example 2-32]	< 10 nM
